The target of one experiment is human Gal-1 (hGal-1) (Homo sapiens, UniProt P09382). The experiment in a line: Competitive binding assay: biotinylated hGal-1 binding to microplate-adsorbed asialofetuin (ASF), spectrophotometric. The following applies: hGal-1 binding to asialofetuin; Table 15; R and S epimers of selected Examples also listed; read-out: IC50 (Galectin-1 inhibition). As to the method: (§1) Biological Assay Evaluation of Compound Inhibitory Activity (IC50)
The inhibitory activity of compounds is determined in competitive binding assays. This spectrophotometric assay measures the binding of biotinylated human Gal-3 (hGal-3) or human Gal-1 (hGal-1), respectively, to a microplate-adsorbed glycoprotein, asialofetuin (ASF) (Proc Natl Acad Sci USA. 2013 Mar. 26; 110(13):5052-7.).
Briefly, compounds are serially diluted in DMSO (working dilutions). ASF-coated 384well plates are supplemented with 22.8 μL/well of biotinylated hGal-3 or hGal-1 in assay buffer (i.e. 300-1000 ng/mL biotinylated hGal-3 or hGal-1) to which 1.2 μL of compound working dilutions are added and mixed.
(§2) Plates are incubated for 3 hours at 4° C., then washed with cold assay buffer (3×50 uL), incubated for 1 hour with 25 μL/well of a streptavidin-peroxidase solution (diluted in assay buffer to 80 ng/mL) at 4° C., followed by further washing steps with assay buffer (3×50 uL). Finally, 25 μL/well of ABTS substrate is added.
(§3) The calculated IC50 values may fluctuate depending on the daily assay performance. Fluctuations of this kind are known to those skilled in the art. IC50 values from several measurements are given as mean values.

Experiment [1] addresses biotinylated human Gal-3 (hGal-3) (Homo sapiens, UniProt P17931). Nature of the experiment: Competitive binding assay: biotinylated hGal-3 binding to microplate-adsorbed asialofetuin (ASF), spectrophotometric. As to the method: If not explicitly mentioned otherwise, the inhibition data refer to the binding of biotinylated human Gal-3 (hGal-3).
as §1
The inhibitory activity of compounds is determined in competitive binding assays.
Briefly, compounds are serially diluted in DMSO (working dilutions).
as §2, §3

Setting [2] is: Table 11, hGal-3, read-out: IC50 (Gal-3 inhibition).
[3] abbreviates: Gal-3 inhibition, Table 4, read-out: IC50.
Where [4] appears, read: Table 6, hGal-3, read-out: IC50 (Gal-3 inhibition).
Setting [5] is: Gal-3 inhibition, Table 7, read-out: IC50.
[6] abbreviates: Table 12, hGal-3, read-out: IC50 (Gal-3 inhibition).

The record followed here is patent US12410208B2, “(2-acetamidyl)thio-beta-D-galactopyranoside derivatives” (Idorsia Pharmaceuticals Ltd, priority 2020, dated 2025).

Read-outs that look alike come from different tables or passages of the source.

Sequence of biotinylated human Gal-3 (hGal-3) (P17931 whole entry): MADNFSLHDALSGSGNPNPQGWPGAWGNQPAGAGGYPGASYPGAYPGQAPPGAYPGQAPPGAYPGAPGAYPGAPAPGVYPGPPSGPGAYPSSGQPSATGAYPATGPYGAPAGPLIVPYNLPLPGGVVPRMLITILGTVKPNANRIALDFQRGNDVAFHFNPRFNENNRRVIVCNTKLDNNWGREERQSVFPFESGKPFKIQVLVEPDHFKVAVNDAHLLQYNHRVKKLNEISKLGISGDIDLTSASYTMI
Sequence of human Gal-1 (hGal-1) (P09382 whole entry): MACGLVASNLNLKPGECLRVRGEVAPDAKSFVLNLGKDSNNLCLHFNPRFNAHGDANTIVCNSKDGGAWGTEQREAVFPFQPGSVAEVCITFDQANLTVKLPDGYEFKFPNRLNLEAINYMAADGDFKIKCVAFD

Regarding `CCC(O)C(S[C@@H]1O[C@H](CO)[C@H](O)[C@H](n2cc(-c3cc(F)c(F)c(F)c3)nn2)[C@H]1O)C(=O)N(C)CC1CC1` (stereo partly shown) [Example 2.60.218], the IC50 (commonly the midpoint of a concentration-inhibition curve) at human Gal-1 (hGal-1) was found to be 0.2 µM.
For `Cc1cc(-c2cn([C@H]3[C@@H](O)[C@@H](CO)O[C@@H](S[C@@H](C(=O)N(C)C4CC4)C4(O)CCC(F)(F)CC4)[C@@H]3O)nn2)cnc1F` [Example 21.44.221R, (R)-N-Cyclopropyl-2-(4,4-difluoro-1-hydroxycyclohexyl)-2-(((2S,3R,4S,5R,6R)-4-(4-(6-fluoro-5-methylpyridin-3-yl)-1H-1,2,3-triazol-1-yl)-3,5-dihydroxy-6-(hydroxymethyl)tetrahydro-2H-pyran-2-yl)thio)-N-methylacetamide], the IC50 in experiment [1] (setting [2]) is 0.23 µM.
Regarding `O=C([C@H](S[C@@H]1O[C@H](CO)[C@H](O)[C@H](n2cc(-c3cc(F)c(F)c(F)c3)nn2)[C@H]1O)C1(O)CCOCC1)N1CCc2ccccc21` [Example 2.41.209R., (R)-2-(((2S,3R,4S,5R,6R)-3,5-Dihydroxy-6-(hydroxymethyl)-4-(4-(3,4,5-trifluorophenyl)-1H-1,2,3-triazol-1-yl)tetrahydro-2H-pyran-2-yl)thio)-2-(4-hydroxytetrahydro-2H-pyran-4-yl)-1-(indolin-1-yl)ethan-1-one], the IC50 in experiment [1] (setting [3]) amounted to 1.31 µM.
As for `CN(CCC1CCOCC1)C(=O)[C@H](S[C@@H]1O[C@H](CO)[C@H](O)[C@H](n2cc(-c3cc(F)c(F)c(F)c3)nn2)[C@H]1O)C1(O)CCOCC1` [Example 2.41.216R., (R)-2-(((2S,3R,4S,5R,6R)-3,5-Dihydroxy-6-(hydroxymethyl)-4-(4-(3,4,5-trifluorophenyl)-1H-1,2,3-triazol-1-yl)tetrahydro-2H-pyran-2-yl)thio)-2-(4-hydroxytetrahydro-2H-pyran-4-yl)-N-methyl-N-(2-(tetrahydro-2H-pyran-4-yl)ethyl)acetamide], the half-inhibitory concentration (IC50) in experiment [1] (setting [3]) was 1.53 µM.
For `CCN(C)C(=O)[C@H](S[C@@H]1O[C@H](CO)[C@H](O)[C@H](n2cc(-c3cc(F)c(F)c(F)c3)nn2)[C@H]1O)C(C)(C)O` [Example 2.31.203R., (R)-2-(((2S,3R,4S,5R,6R)-3,5-Dihydroxy-6-(hydroxymethyl)-4-(4-(3,4,5-trifluorophenyl)-1H-1,2,3-triazol-1-yl)tetrahydro-2H-pyran-2-yl)thio)-N-ethyl-3-hydroxy-N,3-dimethylbutanamide], the half-maximal inhibitory concentration (IC50) in experiment [1] (Gal-3 inhibition, Table 3, read-out: IC50) was 3.88 µM.
As to “(R)-2-(((2S,3R,4S,5R,6R)-3,5-dihydroxy-6-(hydroxymethyl)-4-(4-(3,4,5-trifluorophenyl)-1H-1,2,3-triazol-1-yl)tetrahydro-2H-pyran-2-yl)thio)-3-hydroxy-3-methyl-1-(3-methylazetidin-1-yl)butan-1-one [Example 2.31.205R.]”, the IC50 at human Gal-1 (hGal-1) turned out to be 20 µM.
With `CCN(C)C(=O)C(S[C@@H]1O[C@H](CO)[C@H](O)[C@H](n2cc(-c3cc(F)c(F)c(F)c3)nn2)[C@H]1O)C(O)Cc1ccccc1` (stereo partly shown) [Example 2.64.203], at human Gal-1 (hGal-1), the IC50 is 1.46 µM.
`CC(C)(O)[C@H](S[C@@H]1O[C@H](CO)[C@H](O)[C@H](n2cc(-c3cc(F)c(F)c(F)c3)nn2)[C@H]1O)C(=O)N1CCCC1` [Example 2.31.211S, (S)-2-(((2S,3R,4S,5R,6R)-3,5-Dihydroxy-6-(hydroxymethyl)-4-(4-(3,4,5-trifluorophenyl)-1H-1,2,3-triazol-1-yl)tetrahydro-2H-pyran-2-yl)thio)-3-hydroxy-3-methyl-1-(pyrrolidin-1-yl)butan-1-one]: in experiment [1] (setting [4]), the IC50 is 0.08 µM.
“(R)-2-(4,4-Difluoro-1-hydroxycyclohexyl)-2-(((2S,3R,4S,5R,6R)-3,5-dihydroxy-6-(hydroxymethyl)-4-(4-(3,4,5-trifluorophenyl)-1H-1,2,3-triazol-1-yl)tetrahydro-2H-pyran-2-yl)thio)-1-(piperidin-1-yl)ethan-1-one [Example 2.44.208R.]”: the IC50 in experiment [1] (Gal-3 inhibition, Table 5, read-out: IC50) turned out to be 3.36 µM.
As to `CCC(O)C(S[C@@H]1O[C@H](CO)[C@H](O)[C@H](n2cc(-c3cc(F)c(F)c(F)c3)nn2)[C@H]1O)C(=O)N(C)CC1CC1` (stereo partly drawn) [Example 2.60.218., N-(Cyclopropylmethyl)-2-(((2S,3R,4S,5R,6R)-3,5-dihydroxy-6-(hydroxymethyl)-4-(4-(3,4,5-trifluorophenyl)-1H-1,2,3-triazol-1-yl)tetrahydro-2H-pyran-2-yl)thio)-3-hydroxy-N-methylpentanamide], the IC50 in experiment [1] (setting [5]) turned out to be 0.12 µM.
Turning to `CC(C)(O)[C@@H](S[C@@H]1O[C@H](CO)[C@H](O)[C@H](n2cc(-c3cc(F)c(F)c(F)c3)nn2)[C@H]1O)C(=O)N1CCCC1` [Example 2.31.211R., (R)-2-(((2S,3R,4S,5R,6R)-3,5-Dihydroxy-6-(hydroxymethyl)-4-(4-(3,4,5-trifluorophenyl)-1H-1,2,3-triazol-1-yl)tetrahydro-2H-pyran-2-yl)thio)-3-hydroxy-3-methyl-1-(pyrrolidin-1-yl)butan-1-one], the IC50 in experiment [1] (setting [4]) was determined as 0.31 µM.
On to `CO[C@@H]1[C@@H](n2cc(-c3cc(F)c(F)c(F)c3)nn2)[C@@H](O)[C@@H](CO)O[C@H]1SC(C(=O)NC1CCC(C)(C)CC1)C1(O)CCC(F)(F)CC1` (stereo partly drawn) [Example 2.44.255.I, 2-(4,4-Difluoro-1-hydroxycyclohexyl)-N-(4,4-dimethylcyclohexyl)-2-(((2S,3R,4S,5R,6R)-5-hydroxy-6-(hydroxymethyl)-3-methoxy-4-(4-(3,4,5-trifluorophenyl)-1H-1,2,3-triazol-1-yl)tetrahydro-2H-pyran-2-yl)thio)acetamide], for which the IC50 in experiment [1] (setting [6]) turned out to be 0.39 µM.
In the case of `CCN(C)C(=O)C(S[C@@H]1O[C@H](CO)[C@H](O)[C@H](n2cc(-c3cc(F)c(F)c(F)c3)nn2)[C@H]1O)C(O)Cc1ccccc1` (stereo partly drawn) [Example 2.64.203., 2-(((2S,3R,4S,5R,6R)-3,5-Dihydroxy-6-(hydroxymethyl)-4-(4-(3,4,5-trifluorophenyl)-1H-1,2,3-triazol-1-yl)tetrahydro-2H-pyran-2-yl)thio)-N-ethyl-3-hydroxy-N-methyl-4-phenylbutanamide], in experiment [1] (setting [5]), the IC50 was 0.22 µM.
`CCN(C(=O)C(S[C@@H]1O[C@H](CO)[C@H](O)[C@H](n2cc(-c3cc(F)c(F)c(F)c3)nn2)[C@H]1OC)C1(O)CCC(F)(F)CC1)C1CC1` (stereo partly shown) [Example 2.44.238.I.]: the IC50 in experiment [1] (Table 10, hGal-3, read-out: IC50 (Gal-3 inhibition)) was 0.04 µM.
For `Cc1cc(-c2cn([C@H]3[C@@H](O)[C@@H](CO)O[C@@H](S[C@H](C(=O)N(C)C4CC4)C4(O)CCC(F)(F)CC4)[C@@H]3O)nn2)cnc1F` [Example 21.44.221S, (S)-N-Cyclopropyl-2-(4,4-difluoro-1-hydroxycyclohexyl)-2-(((2S,3R,4S,5R,6R)-4-(4-(6-fluoro-5-methylpyridin-3-yl)-1H-1,2,3-triazol-1-yl)-3,5-dihydroxy-6-(hydroxymethyl)tetrahydro-2H-pyran-2-yl)thio)-N-methylacetamide], the IC50 in experiment [1] (setting [2]) was 0.05 µM.
Take `CO[C@@H]1[C@@H](n2cc(-c3cc(F)c(F)c(F)c3)nn2)[C@@H](O)[C@@H](CO)O[C@H]1SC(C(=O)N(C)C1CC(F)(F)C1)C1(O)CCC(F)(F)CC1` (stereo partly drawn) [Example 2.44.237.I., 2-(4,4-Difluoro-1-hydroxycyclohexyl)-N-(3,3-difluorocyclobutyl)-2-(((2S,3R,4S,5R,6R)-5-hydroxy-6-(hydroxymethyl)-3-methoxy-4-(4-(3,4,5-trifluorophenyl)-1H-1,2,3-triazol-1-yl)tetrahydro-2H-pyran-2-yl)thio)-N-methylacetamide]: in experiment [1] (setting [6]), the IC50 was found to be 0.09 µM.
